Test: xn = mol fraction of the nth substance listed

O=C1CCCN1C1CCCCC1 + O=C1CCCN1
298.15 K, 100 kPa
Conditions | viscosity [mPa·s]
x1 = 0.0107 | 13.4
x2 = 0.0201 | 10.5
x2 = 0.0289 | 10.56
x2 = 0.0403 | 10.66
x2 = 0.0491 | 10.72
x2 = 0.0694 | 10.86
x2 = 0.08 | 10.94
x2 = 0.0913 | 11.02
x2 = 0.0973 | 11.06
x2 = 0.1019 | 11.11
x2 = 0.1982 | 11.73
x2 = 0.2954 | 12.31
x2 = 0.3091 | 12.44
x2 = 0.389 | 12.77
x2 = 0.4916 | 13.18
x2 = 0.602 | 13.5
x2 = 0.7053 | 13.64
x2 = 0.8042 | 13.66
x2 = 0.902 | 13.66
x2 = 0.9031 | 13.63
x2 = 0.9108 | 13.62
x2 = 0.9153 | 13.63
x2 = 0.9306 | 13.59
x2 = 0.9503 | 13.56
x2 = 0.9597 | 13.54
x2 = 0.9696 | 13.49
x2 = 0.979 | 13.45

O=C(O)CO + O=C(O)[C@@H]1CCCN1
323 K, 100 kPa
Conditions | viscosity [mPa·s]
x2 = 0.25 | 480
x2 = 0.338 | 1340
x2 = 0.504 | 8080

ClCC(Cl)Cl + O=S1(=O)CCCC1
viscosity [mPa·s], 100 kPa
Conditions | x2 = 0.0188 | x2 = 0.1215 | x2 = 0.2323 | x2 = 0.3466 | x2 = 0.4454 | x2 = 0.5548 | x2 = 0.6864 | x2 = 0.8249 | x2 = 0.9723
303.15 K | 1.202 | 2.163 | 3.186 | 4.237 | 5.137 | 6.131 | 7.307 | 8.528 | 9.798
308.15 K | 1.108 | 1.937 | 2.834 | 3.752 | 4.539 | 5.402 | 6.428 | 7.489 | 8.588
313.15 K | 1.024 | 1.754 | 2.548 | 3.369 | 4.069 | 4.831 | 5.738 | 6.671 | 7.649

CC(C)CO + OCC(O)CO
viscosity [mPa·s], 101.33 kPa
Conditions | x2 = 0.1006 | x2 = 0.2008 | x2 = 0.2991 | x2 = 0.3991 | x2 = 0.5003 | x2 = 0.6005 | x2 = 0.7001 | x2 = 0.7997 | x2 = 0.8994
298.15 K | 4.625 | 7.894 | 14.39 | 26.58 | 56.03 | 118.3 | 233.2 | 395.9 | 595.4
308.15 K | 3.192 | 5.58 | 9.274 | 15.86 | 30.35 | 59.4 | 110.6 | 179.4 | 269.1
318.15 K | 2.33 | 3.788 | 6.116 | 9.794 | 17.19 | 32.13 | 55.06 | 86.54 | 120.9

O=C(O)CO + OC[C@@H](O)[C@H](O)[C@@H](O)CO
101.33 kPa, x2 = 0.25
Conditions | viscosity [mPa·s]
303.15 K | 937
313.15 K | 446.3
323.15 K | 208.9

CCCCCOC(C)=O + OCc1ccccc1
Conditions | viscosity [mPa·s]
298.15 K, 101 kPa, x1 = 0.5 | 1.035

CCCCCOC(C)=O + Oc1ccccc1
Conditions | viscosity [mPa·s]
298.15 K, 101 kPa, x2 = 0.5 | 1.105

Cc1ccccc1O + Oc1ccccc1
298.15 K, 101 kPa
Conditions | viscosity [mPa·s]
x2 = 0.1343 | 7.835
x2 = 0.1973 | 7.93
x2 = 0.3 | 8.099
x2 = 0.3881 | 8.235
x2 = 0.491 | 8.404
x2 = 0.6283 | 8.565
x2 = 0.6927 | 8.645
x2 = 0.7579 | 8.731
x2 = 0.8003 | 8.757
x2 = 0.873 | 8.825
x2 = 0.901 | 8.851

C=CC(=O)OC + c1ccccc1
viscosity [mPa·s], 101 kPa
Conditions | x2 = 0.105 | x2 = 0.2191 | x2 = 0.3452 | x2 = 0.4069 | x2 = 0.5314 | x2 = 0.6457 | x2 = 0.714 | x2 = 0.7852 | x2 = 0.8977
298.15 K | 0.472 | 0.485 | 0.501 | 0.509 | 0.526 | 0.543 | 0.554 | 0.565 | 0.585
303.15 K | 0.433 | 0.447 | 0.462 | 0.47 | 0.488 | 0.505 | 0.515 | 0.526 | 0.545
308.15 K | 0.398 | 0.412 | 0.428 | 0.436 | 0.453 | 0.47 | 0.481 | 0.492 | 0.51
313.15 K | 0.369 | 0.382 | 0.392 | 0.403 | 0.418 | 0.433 | 0.442 | 0.452 | 0.467

C=CC(=O)OCCCC + c1ccccc1
viscosity [mPa·s], 101 kPa
Conditions | x2 = 0.1282 | x2 = 0.2182 | x2 = 0.2926 | x2 = 0.4108 | x2 = 0.4964 | x2 = 0.5923 | x2 = 0.708 | x2 = 0.7944 | x2 = 0.9032
298.15 K | 0.799 | 0.773 | 0.749 | 0.719 | 0.699 | 0.679 | 0.658 | 0.641 | 0.62
303.15 K | 0.738 | 0.709 | 0.686 | 0.656 | 0.636 | 0.618 | 0.601 | 0.59 | 0.574
308.15 K | 0.683 | 0.649 | 0.625 | 0.595 | 0.576 | 0.564 | 0.554 | 0.545 | 0.531
313.15 K | 0.62 | 0.585 | 0.565 | 0.538 | 0.524 | 0.51 | 0.501 | 0.496 | 0.485
